Among the test systems are XF498; SF-539; K562; SF-295; SNB-78; UO-31; NCI-H23; HCT-15; SF-268; HCT-116; SNB-75; MOLT-4; OVCAR-4; SW-620; COLO 205; EKVX; TK-10; M14; SR; ACHN.
What all share (assay): inhibition of tumour cell growth, NCI panel, 48 h

Structures are written as SMILES.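 Interpolation was linear, between the two tested concentrations surrounding the appropriate level; five concentrations were tested over 48 hours in 96-well plates. GI50 marks 50% less growth.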 Active and inactive are the calls of the source. No stated cut-off is given here; in the data, active = GI50 up to about 1.1 µM and inactive = higher.

On to `OC[C@H]1O[C@@H](n2cnc3cncnc32)[C@H](O)[C@@H]1O` [NEBULARINE], for which the GI50 in the assay with XF498 was < 0.01 µM (active); with SF-539 it was 1.43 µM (inactive); with K562, 0.679 µM (active); in the assay with SF-295, 2 µM (inactive); in the assay with SNB-78, 4.02 µM (inactive); with UO-31 it was 1.28 µM (inactive). For the same molecule, the GI50 in the assay on NCI-H23 is 1.75 µM (inactive); in the assay with HCT-15, 0.692 µM; with SF-268, 1.09 µM (active); in the assay on HCT-116, 0.321 µM (active); in the assay on SNB-75 it was 0.628 µM (active); with MOLT-4 it was 1.26 µM (inactive). Besides, the GI50 was 1.12 µM (inactive) in the assay with OVCAR-4, 0.462 µM (active) with SW-620, 0.417 µM (active) in the assay on COLO 205 and 0.605 µM (active) in the assay on EKVX.

On to `COC(=O)C1C(C)N1C` (stereo not drawn), for which the GI50 with XF498 was 64.3 µM (inactive); in the assay with SF-539, > 100 µM (inactive); in the assay with K562, > 100 µM (inactive); in the assay with SNB-78 it was > 100 µM (inactive); in the assay with NCI-H23, > 100 µM (inactive); in the assay on HCT-15, greater than 100 µM. Besides, the GI50 in the assay on SNB-75, with MOLT-4, in the assay with OVCAR-4, in the assay on SW-620, with COLO 205 and in the assay on TK-10 was > 100 µM (inactive) each time. Moreover, the GI50 in the assay on M14 and with EKVX was > 100 µM (inactive) in each case.

Take `CCOC(=O)NC(Nc1ncccn1)(C(=O)OCC)C(F)(F)F` (stereo not drawn): the GI50 in the assay with SF-539, with K562, with SF-295, in the assay on SR, in the assay on UO-31 and in the assay on NCI-H23 was > 100 µM (inactive) in each case. Besides, the GI50 with HCT-15 was greater than 100 µM; in the assay on SF-268 it was > 100 µM (inactive); in the assay on HCT-116, > 100 µM (inactive); with SNB-75 it was > 100 µM (inactive); in the assay on MOLT-4, > 100 µM (inactive); in the assay with ACHN it was > 100 µM (inactive). In addition, the GI50 with OVCAR-4, with SW-620, with COLO 205, in the assay with TK-10, in the assay on M14 and with EKVX was > 100 µM (inactive) in each case.

On to `CCOc1ccc(/C(C=O)=C(\Cl)c2ccc(OC)c(OC)c2)cc1`, for which the GI50 with XF498 is 45.2 µM (inactive); in the assay with SF-539, 83.2 µM (inactive); in the assay on K562, > 100 µM (inactive); with SF-295, 79.6 µM (inactive); in the assay with SNB-78 it was > 100 µM (inactive); with UO-31, > 100 µM (inactive). Also, the GI50 was > 100 µM (inactive) in the assay on NCI-H23; greater than 100 µM with HCT-15; 42.6 µM (inactive) in the assay with SF-268; > 100 µM (inactive) with HCT-116; > 100 µM (inactive) with ACHN; > 100 µM (inactive) with SW-620. The GI50 with COLO 205, in the assay on TK-10, in the assay with M14 and in the assay with EKVX was > 100 µM (inactive) each time.

For `O=C(O)C1CCCCN1c1ccccc1[N+](=O)[O-]` (stereo not drawn), the GI50 in the assay on XF498, with SF-539, in the assay on K562, in the assay with SF-295, in the assay on SNB-78 and with SR was > 100 µM (inactive) throughout. Further, the GI50 with UO-31 is > 100 µM (inactive); in the assay with NCI-H23 it was > 100 µM (inactive); in the assay on HCT-15, greater than 100 µM; in the assay with SF-268, > 100 µM (inactive); with HCT-116, > 100 µM (inactive); with SNB-75, > 100 µM (inactive). Further, the GI50 with MOLT-4, in the assay on ACHN, in the assay with OVCAR-4, with SW-620, with TK-10 and in the assay on M14 was > 100 µM (inactive) in each case. Moreover, the GI50 with EKVX is > 100 µM (inactive).

Turning to `O=C=C=P(c1ccccc1)(c1ccccc1)c1ccccc1`, the GI50 in the assay with XF498 is 29 µM (inactive); in the assay on SF-539, > 100 µM (inactive); in the assay with K562 it was 27 µM (inactive); in the assay on SF-295, > 100 µM (inactive); in the assay on SNB-78, 39.7 µM (inactive); with SR it was 86.7 µM (inactive). Besides, the GI50 is > 100 µM (inactive) with UO-31; 31.3 µM (inactive) with NCI-H23; greater than 100 µM in the assay with HCT-15; 69.2 µM (inactive) with SF-268; 34.4 µM (inactive) with HCT-116; 23.5 µM (inactive) in the assay on SNB-75. Further, the GI50 was 55.8 µM (inactive) in the assay with MOLT-4; > 100 µM (inactive) in the assay on ACHN; 61.2 µM (inactive) in the assay on OVCAR-4; > 100 µM (inactive) in the assay with SW-620; 23.7 µM (inactive) in the assay with COLO 205; 3.46 µM (inactive) in the assay on TK-10. Besides, the GI50 is 80.5 µM (inactive) with M14 and 46.7 µM (inactive) in the assay with EKVX.

For `O=c1ccn(COC(COCc2ccccc2)COCc2ccccc2)c(=O)[nH]1`, the GI50 in the assay with K562 was > 100 µM (inactive); in the assay with SF-295, > 100 µM (inactive); with SR, 62.8 µM (inactive); in the assay on UO-31, 51.4 µM (inactive); in the assay on NCI-H23, > 100 µM (inactive); in the assay with HCT-15, greater than 100 µM. Besides, the GI50 with HCT-116 was > 100 µM (inactive); with SNB-75, > 100 µM (inactive); with MOLT-4, 24.2 µM (inactive); in the assay on OVCAR-4, > 100 µM (inactive); with SW-620, > 100 µM (inactive); with COLO 205, > 100 µM (inactive). For the same molecule, the GI50 in the assay with TK-10 and with M14 was > 100 µM (inactive) throughout.

As for `CCC(C(=O)O)c1ccc(OC)cc1` (stereo not drawn), the GI50 in the assay with XF498, in the assay on SF-539, with K562, in the assay on SF-295, in the assay on SNB-78 and with SR was > 100 µM (inactive) throughout. In addition, the GI50 in the assay with UO-31, with NCI-H23, in the assay on SF-268, in the assay on HCT-116, in the assay on SNB-75 and in the assay on MOLT-4 was > 100 µM (inactive) each time. Besides, the GI50 with ACHN, with OVCAR-4, with SW-620, in the assay with COLO 205, in the assay on TK-10 and in the assay with M14 was > 100 µM (inactive) in each case. In addition, the GI50 in the assay on EKVX was > 100 µM (inactive).

In the case of `Clc1ccc(C[P+](c2ccccc2)(c2ccccc2)c2ccccc2)c(Cl)c1`, the GI50 is 1.61 µM (inactive) in the assay with XF498; 3.06 µM (inactive) in the assay with SF-539; 3.08 µM (inactive) in the assay with SF-295; 3.42 µM (inactive) in the assay on SNB-78; 1.89 µM (inactive) in the assay with SR; 2.89 µM (inactive) in the assay with NCI-H23. Moreover, the GI50 with HCT-15 is 24 µM; in the assay on SF-268, 3.94 µM (inactive); in the assay on HCT-116, 1.63 µM (inactive); with SNB-75, 2.77 µM (inactive); in the assay on MOLT-4 it was 3.3 µM (inactive); in the assay on ACHN it was 10 µM (inactive). Moreover, the GI50 is 4.04 µM (inactive) with OVCAR-4; 2.94 µM (inactive) in the assay on SW-620; 1.16 µM (inactive) in the assay on COLO 205; 6.52 µM (inactive) in the assay on TK-10; 3.18 µM (inactive) in the assay on M14; 3.44 µM (inactive) in the assay on EKVX.

Take `CCOC(=O)NC(Nc1ccc(Cl)cn1)(C(F)(F)F)C(F)(F)F`: the GI50 in the assay on SF-539 was > 100 µM (inactive); in the assay on K562, > 100 µM (inactive); in the assay with SR, > 100 µM (inactive); in the assay on UO-31, 41.4 µM (inactive); in the assay with NCI-H23 it was > 100 µM (inactive); in the assay with HCT-15, greater than 100 µM. Also, the GI50 in the assay with SF-268, with HCT-116, in the assay with SNB-75, in the assay on MOLT-4, in the assay with ACHN and in the assay with TK-10 was > 100 µM (inactive) throughout. For the same molecule, the GI50 in the assay with M14 and in the assay with EKVX was > 100 µM (inactive) each time.

As to `COc1ccc(C[C@H](N)C(=O)N2C[C@H](CO)C[C@H](n3ccc(=O)[nH]c3=O)C2)cc1`, the GI50 was > 100 µM (inactive) in the assay on SF-539; > 100 µM (inactive) in the assay on K562; > 100 µM (inactive) in the assay on SR; > 100 µM (inactive) in the assay with UO-31; > 100 µM (inactive) in the assay on NCI-H23; greater than 100 µM in the assay on HCT-15. The GI50 with SF-268, in the assay on HCT-116, in the assay on MOLT-4, in the assay on ACHN, in the assay on OVCAR-4 and with SW-620 was > 100 µM (inactive) throughout. The GI50 in the assay on COLO 205, with TK-10, with M14 and with EKVX was > 100 µM (inactive) each time.

For the molecule `O=C1c2ccccc2C(=O)N1CC(O)COc1cccc2ccccc12` (stereo not drawn), the GI50 was > 100 µM (inactive) in the assay on K562; 98.2 µM (inactive) with SF-295; > 100 µM (inactive) with SR; > 100 µM (inactive) in the assay on UO-31; greater than 100 µM with HCT-15; 85.3 µM (inactive) with SF-268. In addition, the GI50 was > 100 µM (inactive) in the assay on HCT-116; > 100 µM (inactive) with MOLT-4; 76.4 µM (inactive) in the assay with ACHN; > 100 µM (inactive) in the assay with SW-620; > 100 µM (inactive) in the assay on COLO 205; > 100 µM (inactive) with TK-10. Moreover, the GI50 with M14 and with EKVX was > 100 µM (inactive) each time.

These data come from ChEMBL document CHEMBL1201862, “PubChem BioAssay data set” (2004).
